Laboratory results from patent publication US20160038505A1, “METHODS AND COMPOSITIONS FOR TREATING IMPULSE CONTROL DISORDER, ANXIETY-RELATED DISORDERS, VIOLENCE AND/OR ANGER, OR REGULATING FOOD INTAKE” (priority 2014, published 2016).
“Also recorded” adds a separate entry of the source.

What was measured:
dogs = experiment: Single dose (acute oral) toxicity/TK study in dogs; format: in vivo, dog
cynomolgus monkey = experiment: Single dose toxicity in cynomolgus monkeys; format: in vivo; details: oral gavage
Experimental: The objective of the study was to determine the toxicity and toxicokinetic profile of noribogaine following oral (gavage) administration to the cynomolgus monkey. Each dose was followed by a 7 day washout period. Dosing was staggered by 45 minutes. On study day 15, one animal was administered 80 mg/kg and the other animal was administered 160 mg/kg. The test article was administered as follows in Table 1:
Parameters monitored on the study included: mortality, clinical signs and body weights. Blood samples were collected for TK evaluation. […] The single dose maximum tolerated dose (MTD) was determined to be greater than 160 mg/kg based on the parameters monitored during the study.

[1] = Plasma toxicokinetics in dogs, 14 day repeat dose study; format: in vivo, dog
Experimental: Noribogaine HCl was administered to groups of 4 male and 4 female dogs by single oral gavage daily for 14 days at doses of 0, 0.5, 1.0 and 5.0 mg/kg/day. An additional group of 4 male and 4 female dogs received either the vehicle control or 5.0 mg/kg/day for 14 days and were held for an additional 28 days after cessation of dosing to assess recovery from any potential drug-induced changes. The study was conducted under GLP guidelines and included comprehensive examinations of clinical signs, body weight, clinical pathology parameters, ophthalmologic examinations, ECG recordings and analyses of plasma for bioanalytical measurement of drug levels at appropriate intervals during the study. At the termination of the dosing phase and at the termination of the recovery phase, all dogs were subjected to a complete post-mortem examination including gross examination of major organs and histologic examination of an extensive list of tissues. Additional sections of brain were obtained from cerebrum, cerebellus, brain stem and spinal cord and examined histologically to evaluate potential effects on brain histopathology. In addition, these sections were examined with immunohistochemical stains for GFAP for evidence of gliosis and Calbindin for a more comprehensive examination of cerebellar Purkinje cells.

[2] = Human pharmacokinetic study, single oral tablet, fasting healthy volunteers (serum); format: in vivo; details: fasting, serum
Experimental: In double blind studies, fasting healthy volunteers (6 per cohort) were treated once orally with a tablet of noribogaine HCl. In escalating cohorts, the volunteers received 3 mg, 10 mg, 30 mg or 60 mg noribogaine.

[3] = test system: healthy, drug-free male volunteers; experiment: Safety and tolerability of noribogaine in healthy humans; format: in vivo, human
Experimental: Safety and tolerability of noribogaine were tested in the group of volunteers from Example 9. […] Safety evaluations included clinical monitoring, recording of adverse events (AEs), safety laboratory tests, vital signs, ECG telemetry from −2 h to 6 h after dosing, and 12-lead electrocardiograms (ECGs) up to 216 hours post-dosing.

[4] = test system: opioid-dependent participants; experiment: QT interval evaluation in opioid-dependent patients; format: in vivo, human; details: 60, 120, 180 mg, first 24 hours; correlated with serum concentration
Experimental: Patients' QT intervals were evaluated at regular time points throughout the study.

[5] = dog, plasma, po, female dogs, 5.0 mg/kg, D 14

With `CC[C@H]1CC2C[C@H]3c4[nH]c5ccc(O)cc5c4CCN(C2)C13` [noribogaine] the “findings at NOAEL dose” value (dogs; 5 mg/kg) was “only transient reduction in food consumption in one dog”, the clinical signs (dogs; 10 mg/kg, from 20 minutes until 3 h 40 m post-dose) was “Convulsions and other CNS-related clinical signs” and the mortality (dogs; 5 (n=2) or 10 (n=2) mg/kg oral) was “no mortality occurred”. For the same compound, the “single dose maximum tolerated dose (MTD)” value (cynomolgus monkey) was “greater than 160 mg/kg”, the “mortality and clinical signs” value (cynomolgus monkey; doses up to and including 160 mg/kg) was “No mortality or treatment related clinical signs” and the Cmax at 1 day of dosing ([1]; dog, plasma, po, female dogs, 0.5 mg/kg, D 1) was 25.3 ng/mL. The Cmax at 14 day of dosing ([1]; dog, plasma, po, female dogs, 0.5 mg/kg, D 14) was 29.8 ng/mL, the Cmax at 1 day of dosing ([1]; dog, plasma, po, female dogs, 1.0 mg/kg, D 1) was 68.5 ng/mL and the Cmax at 14 day of dosing ([1]; dog, plasma, po, female dogs, 1.0 mg/kg, D 14) was 74.1 ng/mL. For the same compound, the Cmax at 1 day of dosing ([1]; dog, plasma, po, female dogs, 5.0 mg/kg, D 1) was 691 ng/mL, the Cmax at 14 day of dosing [1, 5] was 683 ng/mL and the Tmax at 14 day of dosing [1, 5] was 0.6 h. For the same compound, the AUC0-24 h ([1]; female dogs, 0.5 mg/kg, D 1) was 40.4 ng·h/mL, the AUC0-last ([1]; female dogs, 0.5 mg/kg, D 1) was 31.5 ng·h/mL and the “AUC0-∞” value ([1]; female dogs, 0.5 mg/kg, D 1) was 44.9 ng·h/mL. It also gave a T1/2 ([1]; female dogs, 0.5 mg/kg, D 1) of 1.0 h, a Tmax ([1]; female dogs, 0.5 mg/kg, D 1) of 0.5 h and an AUC0-24 h ([1]; female dogs, 0.5 mg/kg, D 14) of 55.0 ng·h/mL. For the same compound, the AUC0-last ([1]; female dogs, 0.5 mg/kg, D 14) was 35.4 ng·h/mL, the “AUC0-∞” value ([1]; female dogs, 0.5 mg/kg, D 14) was 45.7 ng·h/mL and the T1/2 ([1]; female dogs, 0.5 mg/kg, D 14) was 1.1 h. It also gave a Tmax ([1]; female dogs, 0.5 mg/kg, D 14) of 1.0 h, an AUC0-24 h ([1]; female dogs, 1.0 mg/kg, D 1) of 176.2 ng·h/mL and an AUC0-last ([1]; female dogs, 1.0 mg/kg, D 1) of 148.9 ng·h/mL. The “AUC0-∞” value ([1]; female dogs, 1.0 mg/kg, D 1) was 165.3 ng·h/mL, the T1/2 ([1]; female dogs, 1.0 mg/kg, D 1) was 1.4 h and the Tmax ([1]; female dogs, 1.0 mg/kg, D 1) was 0.8 h. The AUC0-24 h ([1]; female dogs, 1.0 mg/kg, D 14) was 203.7 ng·h/mL, the AUC0-last ([1]; female dogs, 1.0 mg/kg, D 14) was 169.0 ng·h/mL and the “AUC0-∞” value ([1]; female dogs, 1.0 mg/kg, D 14) was 197.0 ng·h/mL. The T1/2 ([1]; female dogs, 1.0 mg/kg, D 14) was 1.6 h, the Tmax ([1]; female dogs, 1.0 mg/kg, D 14) was 0.5 h and the AUC0-24 h ([1]; female dogs, 5.0 mg/kg, D 1) was 3367.9 ng·h/mL. For the same compound, the AUC0-last ([1]; female dogs, 5.0 mg/kg, D 1) was 3367.9 ng·h/mL, the “AUC0-∞” value ([1]; female dogs, 5.0 mg/kg, D 1) was 3425.7 ng·h/mL and the T1/2 ([1]; female dogs, 5.0 mg/kg, D 1) was 4.3 h. For the same compound, the AUC0-24 h ([1]; female dogs, 5.0 mg/kg, D 14) was 5951.2 ng·h/mL, the AUC0-last ([1]; female dogs, 5.0 mg/kg, D 14) was 5951.2 ng·h/mL and the “AUC0-∞” value ([1]; female dogs, 5.0 mg/kg, D 14) was 6283.2 ng·h/mL. It also gave a T1/2 ([1]; female dogs, 5.0 mg/kg, D 14) of 5.7 h, an AUC0-24 h ([1]; male dogs, 0.5 mg/kg, D 1) of 59.7 ng·h/mL and an AUC0-last ([1]; male dogs, 0.5 mg/kg, D 1) of 46.6 ng·h/mL. For the same compound, the “AUC0-∞” value ([1]; male dogs, 0.5 mg/kg, D 1) was 67.8 ng·h/mL, the Cmax ([1]; male dogs, 0.5 mg/kg, D 1) was 28.8 ng/mL and the T1/2 ([1]; male dogs, 0.5 mg/kg, D 1) was 1.3 h. For the same compound, the Tmax ([1]; male dogs, 0.5 mg/kg, D 1) was 0.7 h, the AUC0-24 h ([1]; male dogs, 0.5 mg/kg, D 14) was 64.5 ng·h/mL and the AUC0-last ([1]; male dogs, 0.5 mg/kg, D 14) was 53.2 ng·h/mL. The “AUC0-∞” value ([1]; male dogs, 0.5 mg/kg, D 14) was 68.2 ng·h/mL, the Cmax ([1]; male dogs, 0.5 mg/kg, D 14) was 29.4 ng/mL and the T1/2 ([1]; male dogs, 0.5 mg/kg, D 14) was 1.3 h. For the same compound, the Tmax ([1]; male dogs, 0.5 mg/kg, D 14) was 0.7 h, the AUC0-24 h ([1]; male dogs, 1.0 mg/kg, D 1) was 119.8 ng·h/mL and the AUC0-last ([1]; male dogs, 1.0 mg/kg, D 1) was 102.5 ng·h/mL. The “AUC0-∞” value ([1]; male dogs, 1.0 mg/kg, D 1) was 120.8 ng·h/mL, the Cmax ([1]; male dogs, 1.0 mg/kg, D 1) was 58.6 ng/mL and the T1/2 ([1]; male dogs, 1.0 mg/kg, D 1) was 1.2 h. It also gave a Tmax ([1]; male dogs, 1.0 mg/kg, D 1) of 0.9 h, an AUC0-24 h ([1]; male dogs, 1.0 mg/kg, D 14) of 210.4 ng·h/mL and an AUC0-last ([1]; male dogs, 1.0 mg/kg, D 14) of 172.3 ng·h/mL. For the same compound, the “AUC0-∞” value ([1]; male dogs, 1.0 mg/kg, D 14) was 195.7 ng·h/mL, the Cmax ([1]; male dogs, 1.0 mg/kg, D 14) was 67.6 ng/mL and the T1/2 ([1]; male dogs, 1.0 mg/kg, D 14) was 1.8 h. The Tmax ([1]; male dogs, 1.0 mg/kg, D 14) was 0.8 h, the AUC0-24 h ([1]; male dogs, 5.0 mg/kg, D 1) was 3515.0 ng·h/mL and the AUC0-last ([1]; male dogs, 5.0 mg/kg, D 1) was 3515.0 ng·h/mL. For the same compound, the “AUC0-∞” value ([1]; male dogs, 5.0 mg/kg, D 1) was 3630.5 ng·h/mL, the Cmax ([1]; male dogs, 5.0 mg/kg, D 1) was 693 ng/mL and the T1/2 ([1]; male dogs, 5.0 mg/kg, D 1) was 4.7 h. For the same compound, the AUC0-24 h ([1]; male dogs, 5.0 mg/kg, D 14) was 6403.3 ng·h/mL, the AUC0-last ([1]; male dogs, 5.0 mg/kg, D 14) was 6403.3 ng·h/mL and the “AUC0-∞” value ([1]; male dogs, 5.0 mg/kg, D 14) was 6961.4 ng·h/mL. It also gave a Cmax ([1]; male dogs, 5.0 mg/kg, D 14) of 716 ng/mL, a T1/2 ([1]; male dogs, 5.0 mg/kg, D 14) of 6.5 h and a Tmax ([1]; male dogs, 5.0 mg/kg, D 14) of 0.9 h. For the same compound, the “mean AUC/24 hr” value ([2]; single dose of 3 mg) was 3.1 ng/mL, the “time after administration at which mean Cmax was observed” value (“time after administration” for short) ([2]; single dose of 3 mg) was 1.9 h and the “mean AUC/24 hr” value ([2]; single dose of 10 mg) was 10.6 ng/mL. The “time after administration” value ([2]; single dose of 10 mg) was 2.9 h, the “mean AUC/24” value ([2]; single dose of 30 mg) was 29.2 ng/mL and the “time after administration” value ([2]; single dose of 30 mg) was 1.75 h. The “mean AUC/24” value ([2]; single dose of 60 mg) was 61 ng/mL, the “time after administration” value ([2]; single dose of 60 mg) was 1.75 h and the “adverse events, Mild” value ([3]; 3 mg) was “Dizziness; also recorded: Epistaxis; also recorded: Headache; also recorded: Back pain”. The “adverse events, Moderate” value ([3]; 3 mg) was “Headache”, the “number of adverse events reported” value ([3]; 3 mg dose group) was “five adverse events were reported by two subjects” and the “adverse events, Mild” value ([3]; 10 mg) was “Headache”. The “number of adverse events reported” value ([3]; 10 mg dose group, single subject) was “one adverse event”, the “adverse events, Mild” value ([3]; 30 mg) was “Headache” and the “number of adverse events reported” value ([3]; 30 mg dose group, single subject) was “one adverse event”. The “oximetry, capnography, respiratory rate” value ([3]; 3-60 mg) was “no changes in oximetry or capnography, or changes in respiratory rate”, the “vital signs and safety laboratory tests” value ([3]; 3-60 mg) was “no changes in vital signs or safety laboratory tests of note” and the QTcF values ([3]; 3-60 mg, at any time) was ≤ 500 ms. For the same compound, the “single increase in QTcF” value ([3]; one subject dosed with 10 mg, 24 hours post-dosing) was > 60 ms and the “QT interval prolongation (ΔQTcl)” value [4] was “dose-dependent increase in QT interval prolongation”.
